# ChEMBL document CHEMBL6103588, “Promising thiazolidinedione-thiazole based multi-target and neuroprotective hybrids for Alzheimer's disease: Design, synthesis, in-vitro, in-vivo and in-silico studies” (Eur J Med Chem, 2025)
# Active and inactive are the calls of the source. The calls are words filed in the database; no cut-off is given here.
# Tests used:
# [1] = Acute toxicity in male Swiss albino mouse assessed as mortality rate at 450 to 50 mg/kg BW, po administered as single dose via gavage measured after 48 hrs by up-and-down method relative to control; format: organism-based; settings: in vivo, at 50 to 450 mg/kg, dose 450-50 mg/kg
# Mus musculus [2] = assay: Antioxidant activity against scopolamine-induced Albino mouse assessed as increase in GSH-Px level in brain at 5 mg/kg measured after 24 hrs; format: functional
# Mus musculus [3] = assay: Antioxidant activity against scopolamine-induced Albino mouse assessed as increase in catalase activity in brain at 5 mg/kg measured after 24 hrs; format: functional, organism-based
# Beta-secretase 1 = Beta-secretase 1 (Homo sapiens, UniProt P56817); assay: Inhibition of BACE-1 (unknown origin) 667-676- (2, 4-dinitrophenyl) Lys-Arg-Arg amide trifluoroacetate as substrate preincubated for 15 mins followed by substrate addition and measured after 2 hrs by fluorescence spectrometric analysis; settings: read-out: IC50
# [4] = Acute toxicity in male Swiss albino mouse assessed as piloerection at 450 mg/kg BW, po administered as single dose via gavage measured after 1 hrs by up-and-down method; format: organism-based; settings: in vivo
# [5] = Acute toxicity in male Swiss albino mouse assessed as mortality rate at 1200 mg/kg BW, po administered as single dose via gavage measured after 48 hrs by up-and-down method relative to control; format: organism-based; settings: in vivo
# [6] = Acute toxicity in male Swiss albino mouse assessed as survival time at 900 mg/kg BW, po administered as single dose via gavage by up-and-down method; format: organism-based; settings: in vivo
# [7] = Acute toxicity in male Swiss albino mouse assessed as ataxia at 1200 mg/kg BW, po administered as single dose via gavage measured after 20 mins by up-and-down method; format: organism-based; settings: in vivo
# Mus musculus [8] = assay: Antioxidant activity against scopolamine-induced Albino mouse assessed as decrease in MDA level in brain at 5 mg/kg measured after 24 hrs; format: functional
# [9] = Acute toxicity in male Swiss albino mouse assessed as signs of discomfort at 1200 mg/kg BW, po administered as single dose via gavage measured after 20 mins by up-and-down method; format: organism-based; settings: in vivo
# [10] = Acute toxicity in male Swiss albino mouse assessed as seizures at 1200 mg/kg BW, po administered as single dose via gavage measured after 20 mins by up-and-down method; format: organism-based; settings: in vivo
# [11] = Neurotoxicity against human SH-SY5Y cells assessed as reduction in cell viability at 100 uM incubated for 24 hrs by MTT assay; format: toxicity, cell-based
# [12] = Neurotoxicity against human SH-SY5Y cells assessed as reduction in cell viability upto 50 uM incubated for 24 hrs by MTT assay; format: toxicity, cell-based
# Acetylcholinesterase = Acetylcholinesterase (Electrophorus electricus, UniProt O42275); assay: Inhibition of Electric eel AChE using acetylthiocholine iodide as substrate pre-incubated for 10 mins followed by substrate addition and measured after 15 mins by DTNB reagent based Ellman's method; settings: read-out: IC50
# [13] = Acute toxicity in male Swiss albino mouse assessed as ataxia at 450 mg/kg BW, po administered as single dose via gavage measured after 1 hrs by up-and-down method; format: organism-based; settings: in vivo
# [14] = biological target: T1, Polyunsaturated fatty acid 5-lipoxygenase (Homo sapiens, UniProt P09917); assay: Inhibition of 5-LOX (unknown origin) using linoleic acid as substrate incubated for 5 mins followed by substrate addition
# T1 sequence (P09917 whole entry): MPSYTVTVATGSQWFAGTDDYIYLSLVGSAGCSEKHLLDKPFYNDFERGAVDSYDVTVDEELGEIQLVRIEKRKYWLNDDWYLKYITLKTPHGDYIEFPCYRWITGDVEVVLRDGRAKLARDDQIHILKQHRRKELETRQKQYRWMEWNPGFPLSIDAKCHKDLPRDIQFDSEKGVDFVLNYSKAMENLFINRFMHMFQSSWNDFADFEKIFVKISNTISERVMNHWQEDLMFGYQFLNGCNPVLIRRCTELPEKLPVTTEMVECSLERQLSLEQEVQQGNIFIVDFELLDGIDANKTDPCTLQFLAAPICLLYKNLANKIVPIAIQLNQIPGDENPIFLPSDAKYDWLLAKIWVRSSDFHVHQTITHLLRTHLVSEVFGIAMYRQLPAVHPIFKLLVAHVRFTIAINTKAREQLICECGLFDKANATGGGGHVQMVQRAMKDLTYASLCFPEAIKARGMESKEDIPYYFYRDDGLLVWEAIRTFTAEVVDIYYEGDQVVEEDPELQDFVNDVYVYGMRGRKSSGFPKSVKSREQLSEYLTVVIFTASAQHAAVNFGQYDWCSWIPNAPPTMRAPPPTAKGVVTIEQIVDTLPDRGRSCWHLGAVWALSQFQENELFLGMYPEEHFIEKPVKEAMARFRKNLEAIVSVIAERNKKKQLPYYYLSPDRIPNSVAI
# [15] = Acute toxicity in male Swiss albino mouse assessed as mortality treated po single dose via gavage measured after 48 hrs by up-and-down method; format: organism-based; settings: in vivo
# [16] = Acute toxicity in male Swiss albino mouse assessed as survival time at 650 mg/kg BW, po administered as single dose via gavage by up-and-down method; format: organism-based; settings: in vivo
# [17] = Acute toxicity in male Swiss albino mouse assessed as survival time at 450 mg/kg BW, po administered as single dose via gavage by up-and-down method; format: organism-based; settings: in vivo
# [18] = Acute toxicity in male Swiss albino mouse assessed as mortality rate at 1500 mg/kg BW, po administered as single dose via gavage measured after 48 hrs by up-and-down method relative to control; format: organism-based; settings: in vivo
# [19] = Acute toxicity in male Swiss albino mouse assessed as survival time at 50 mg/kg BW, po administered as single dose via gavage by up-and-down method; format: organism-based; settings: in vivo
# [20] = Lipophilicity, logP of compound; format: physicochemical; settings: octanol/water
# [21] = Neurotoxicity against human SH-SY5Y cells assessed as reduction in cell viability at 100 uM incubated for 24 hrs by MTT assay relative to control; format: toxicity, cell-based
# Beta-secretase 1, sequence (P56817 whole entry): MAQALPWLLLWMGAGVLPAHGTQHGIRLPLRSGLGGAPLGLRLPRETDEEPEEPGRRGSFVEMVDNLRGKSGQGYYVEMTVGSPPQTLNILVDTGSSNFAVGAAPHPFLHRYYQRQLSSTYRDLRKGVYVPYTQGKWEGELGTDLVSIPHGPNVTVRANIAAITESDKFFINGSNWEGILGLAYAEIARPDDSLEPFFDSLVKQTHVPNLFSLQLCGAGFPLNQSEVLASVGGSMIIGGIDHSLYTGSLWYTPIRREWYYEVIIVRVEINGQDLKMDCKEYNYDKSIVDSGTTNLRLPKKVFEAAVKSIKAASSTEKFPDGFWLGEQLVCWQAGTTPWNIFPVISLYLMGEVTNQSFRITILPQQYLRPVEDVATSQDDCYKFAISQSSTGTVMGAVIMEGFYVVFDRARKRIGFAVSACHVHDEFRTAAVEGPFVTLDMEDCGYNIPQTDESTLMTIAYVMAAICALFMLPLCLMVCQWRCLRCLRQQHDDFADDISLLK
# Acetylcholinesterase, sequence (O42275 whole entry): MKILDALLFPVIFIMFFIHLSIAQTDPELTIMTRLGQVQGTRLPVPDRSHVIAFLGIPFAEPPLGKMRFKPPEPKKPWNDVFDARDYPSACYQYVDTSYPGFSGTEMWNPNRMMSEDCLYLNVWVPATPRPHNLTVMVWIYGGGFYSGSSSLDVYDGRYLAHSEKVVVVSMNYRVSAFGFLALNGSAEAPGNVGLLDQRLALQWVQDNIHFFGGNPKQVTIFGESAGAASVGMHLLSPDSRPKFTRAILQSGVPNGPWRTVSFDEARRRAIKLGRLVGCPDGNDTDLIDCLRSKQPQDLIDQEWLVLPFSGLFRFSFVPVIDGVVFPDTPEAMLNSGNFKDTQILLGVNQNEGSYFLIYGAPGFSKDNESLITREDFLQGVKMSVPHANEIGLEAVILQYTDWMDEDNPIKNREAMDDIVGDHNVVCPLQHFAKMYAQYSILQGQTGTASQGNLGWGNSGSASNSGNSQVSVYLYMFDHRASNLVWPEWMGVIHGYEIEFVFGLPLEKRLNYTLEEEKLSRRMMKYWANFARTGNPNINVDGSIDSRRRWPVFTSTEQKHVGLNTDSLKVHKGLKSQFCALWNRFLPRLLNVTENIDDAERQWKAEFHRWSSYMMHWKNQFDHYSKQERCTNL
smiles,measurement,setting,value
COc1cc(/C=C/C(=O)Nc2ccc3sc(NCN4C(=O)CSC4=O)nc3c2)ccc1O,mortality at 48 h,[1],0%
same,Activity,Mus musculus [2],230 U/ml
same,Activity,Mus musculus [3],Active
same,IC50,Beta-secretase 1,2420 nM
same,Activity,[4],Toxic
same,mortality at 48 h,[5],80%
same,Time,[6],2 h
same,Activity,[7],Toxic
same,Activity,Mus musculus [8],1.95 nmol/mL
same,Activity,[9],Toxic
same,Activity,[10],Toxic
same,Activity,[11],Toxic
same,Activity,[12],Non-toxic
same,IC50,Acetylcholinesterase,72 nM
same,Activity,[13],Toxic
same,IC50,[14],180 nM
same,LD100,"[15]; po, 48 h",1500 mg/kg
same,LD50 at 48 h,"[15]; male, Swiss albino",800 mg/kg
same,Time,[16],18 h
same,Time,[17],> 48 h
same,mortality at 48 h,[18],100%
same,Time,[19],> 48 h
same,logP,[20],3.34
same,Activity,[21],76%
